Data published in patent publication US20200325505A1, “FILAMENTOUS FUNGI CAPABLE OF PRODUCING VERY LONG CHAIN FATTY ACIDS” (UT-Battelle, LLC, priority 2019, published 2020).
Residues, ends and D or L forms follow the SMILES beside them.

Tests used:
[1] = test system: Mortierella elongata AG77; assay: Nitrogen source utilisation in Biolog 96-well plates, formazan formation after tetrazolium addition; assay type: cell-based; settings: for Metabolized: Metabolized = more formazan formation than a control containing no nitrogen source, observed visually at 2 h, 24 h, 148 h; for Nitrogen sources that Mortierella elongata AG77 can metabolize: text summary of Table 4
Method: Two 300 mL volumes of growth medium comprising 1 g/L KH2PO4, 1 g/L MgSO4 7H2O, 0.1 g/L CaCl2, 0.02 g/L FeNaEDTA, 0.1 g/L NaCl, and either 1 g/L NH4NO3 or 20 g/L sucrose were prepared. […] Aliquots of 200 μL of carbon-free medium or nitrogen-free medium were pipetted into each well of a set of 96-well plates previously prepared with lyophilized putative carbon or nitrogen sources (Biolog Inc., Hayward, Calif.). Inocula were prepared by perforating a culture of Mortierella elongata AG77 grown on 20 g/L potato dextrose agar with a 3 mm diameter cork borer and separating the surface mycelial mat from the solid growth medium using tweezers. Each well was inoculated with one inoculum. Cultures were incubated at 21° C. for 24 hours to allow metabolic changes to stabilize, and then 100 μL of 3 g/L tetrazolium chloride in water was added to each well.
Conclusions were based on rate and intensity of formazan formation using the 3-(4,5-dimethylthiazol-2-yl)-2,5-diphenyltetrazolium bromide ([…]) assay. “Metabolized” indicates more formazan formation than a control containing no nitrogen source, and “Toxic” indicates less formazan formation than a control containing no nitrogen source, “Metabolized” and “Toxic” assignments are mutually exclusive. In this example, a compound may be “Metabolized” or “Toxic,” but not both.

[2] = test system: Mortierella elongata AG77; assay: Carbon source utilisation in Biolog 96-well plates, formazan formation after tetrazolium addition; assay type: cell-based; settings: for Metabolized: Metabolized = more formazan formation than a control containing no carbon source, observed visually at 2 h, 24 h, 148 h; for Carbon sources that Mortierella elongata AG77 can metabolize: summary of Table 3
Method in brief: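 Scoring was by eye at 2, 24 and 148 h after tetrazolium chloride went into wells preincubated 24 h at 21 °C. Wells held lyophilised candidate carbon or nitrogen sources in pH 5.5 mineral medium lacking that nutrient, inoculated with 3 mm PDA-grown mycelial plugs. Formazan above the no-carbon control counted as metabolised and below it as toxic.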

[3] = compound as nitrogen source, Toxic = less formazan formation than a control containing no nitrogen source
[4] = compound as carbon source, Toxic = less formazan formation than a control containing no carbon source

Compound | Metabolized ([1]; compound as nitrogen source) | Toxic [1, 3] | Toxic [1] | other results
CC(O)C(N)=O (racemic) [D,L-Lactamide] | no | no | – | –
CCCCCCC(N)C(=O)O (racemic) [D,L-α-Amino- Caprylic Acid] | no | no | – | –
CCC(N)C(=O)O (racemic) [D,L-α-Amino-N-Butyric Acid] | no | – | no | –
NCCO [2-Aminoethanol] | no | no | – | Metabolized ([2]; compound as carbon source): yes; Toxic [2, 4]: no; Carbon sources that Mortierella elongata AG77 can metabolize [2]: can metabolize
CC(N)=O [Acetamide] | no | no | – | Metabolized ([2]; compound as carbon source): no
Nc1ncnc2nc[nH]c12 [Adenine] | no | – | no | –
Nc1ncnc2c1ncn2[C@@H]1O[C@H](CO)[C@@H](O)[C@H]1O [Adenosine] | no | – | no | Toxic [2]: no; Metabolized ([2]; compound as carbon source): yes; Carbon sources that Mortierella elongata AG77 can metabolize [2]: can metabolize
N=C(N)NCCCCN [Agmatine] | no | no | – | –
C[C@H](N)C(=O)N[C@@H](CC(=O)O)C(=O)O [Ala-Asp] (H-Ala-Asp-OH) | yes | no | – | Nitrogen sources that Mortierella elongata AG77 can metabolize [1]: can metabolize
C[C@H](N)C(=O)N[C@@H](CCC(N)=O)C(=O)O [Ala-Gln] (H-Ala-Gln-OH) | yes | no | – | Nitrogen sources that Mortierella elongata AG77 can metabolize [1]: can metabolize
C[C@H](N)C(=O)N[C@@H](CCC(=O)O)C(=O)O [Ala-Glu] (H-Ala-Glu-OH) | yes | no | – | Nitrogen sources that Mortierella elongata AG77 can metabolize [1]: can metabolize
C[C@H](N)C(=O)N[C@@H](Cc1cnc[nH]1)C(=O)O [Ala-His] (H-Ala-His-OH) | no | no | – | –
CC(C)C[C@H](NC(=O)[C@H](C)N)C(=O)O [Ala-Leu] (H-Ala-Leu-OH) | yes | no | – | Nitrogen sources that Mortierella elongata AG77 can metabolize [1]: can metabolize
C[C@H](N)C(=O)N[C@H](C(=O)O)[C@@H](C)O [Ala-Thr] (H-Ala-Thr-OH) | no | no | – | –
NC(=O)NC1NC(=O)NC1=O (stereo not shown) [Allantoin] | no | – | no | –
O=C1NC(=O)C(=O)C(=O)N1 [Alloxan] | no | no | – | –
N [Ammonia] | no | – | no | –
NC(=O)NC(N)=O [Biuret] | no | no | – | –
Nc1ccn([C@@H]2O[C@H](CO)[C@@H](O)[C@H]2O)c(=O)n1 [Cytidine] | yes | – | no | Nitrogen sources that Mortierella elongata AG77 can metabolize [1]: can metabolize

Compound | Metabolized ([1]; compound as nitrogen source) | Toxic [1, 3] | Toxic [1] | other results
Nc1cc[nH]c(=O)n1 [Cytosine] | no | – | no | –
NC(=O)C[C@@H](N)C(=O)O [D-Asparagine] | no | – | no | –
N[C@H]1C(O)O[C@H](CO)[C@H](O)[C@@H]1O (stereo partly drawn) [D-Galactosamine] | no | – | no | –
N[C@H](CCC(=O)O)C(=O)O [D-Glutamic Acid] | no | no | – | –
NCCCC[C@@H](N)C(=O)O [D-Lysine] | no | – | no | –
N[C@@H]1C(O)O[C@H](CO)[C@@H](O)[C@@H]1O (stereo partly drawn) [D-Mannosamine] | no | – | no | –
CC(C)[C@@H](N)C(=O)O [D-Valine] | no | – | no | –
CCN [Ethylamine] | no | no | – | –
NCCN [Ethylenediamine] | no | – | no | –
NC=O [Formamide] | no | no | – | –
NCC(=O)N[C@@H](CC(N)=O)C(=O)O [Gly-Asn] (H-Gly-Asn-OH) | no | no | – | –
NCC(=O)N[C@@H](CCC(N)=O)C(=O)O [Gly-Gln] (H-Gly-Gln-OH) | no | no | – | –
CSCC[C@H](NC(=O)CN)C(=O)O [Gly-Met] | no | no | – | –
Nc1nc2nc[nH]c2c(=O)[nH]1 [Guanine] | no | – | yes | –
Nc1nc2c(ncn2[C@@H]2O[C@H](CO)[C@@H](O)[C@H]2O)c(=O)[nH]1 [Guanosine] | no | no | – | –
NCCc1c[nH]cn1 [Histamine] | no | – | no | –
NO [Hydroxylamine] | no | – | – | –
NC(=O)NCCC[C@H](N)C(=O)O [L-Citrulline] | no | no | – | –
N[C@@H](CS)C(=O)O [L-Cysteine] | no | – | – | –

Compound | Metabolized ([1]; compound as nitrogen source) | Toxic [1, 3] | Toxic [1] | other results
N[C@@H](Cc1c[nH]c2ccccc12)C(=O)O [L-Tryptophan] | no | – | no | –
N[C@@H](Cc1ccc(O)cc1)C(=O)O [L-Tyrosine] | no | no | – | –
CSCC[C@H](N)C(=O)N[C@@H](C)C(=O)O [Met-Ala] (H-Met-Ala-OH) | no | no | – | –
CN [Methylamine] | no | no | – | –
CC(=O)N[C@@H]1C(O)O[C@H](CO)[C@@H](O)[C@@H]1O (stereo partly drawn) [N-Acetyl-D-Mannosamine] | no | no | – | –
CCCCCN [N-Amylamine] | no | – | no | –
CCCCN [N-Butylamine] | no | no | – | –
O=NO [Nitrite] | no | no | – | –
O=C1NC(=O)C(=O)N1 [Parabanic Acid] | yes | no | – | Nitrogen sources that Mortierella elongata AG77 can metabolize [1]: can metabolize
Cc1c[nH]c(=O)[nH]c1=O [Thymine] | no | – | no | –
O=c1cc[nH]c(=O)[nH]1 [Uracil] | no | – | no | –
NC(N)=O [Urea] | no | no | – | –
O=c1[nH]c(=O)c2[nH]c(=O)[nH]c2[nH]1 [Uric Acid] | no | no | – | –
O=c1[nH]c(=O)c2[nH]cnc2[nH]1 [Xanthine] | no | – | no | –
O=c1[nH]c(=O)c2ncn([C@@H]3O[C@H](CO)[C@@H](O)[C@H]3O)c2[nH]1 [Xanthosine] | no | – | no | –
CCC[C@H](N)C(=O)O [α-Amino-N-Valeric Acid] | no | no | – | –
NCCCCCC(=O)O [ε-Amino-N-Caproic Acid] | no | no | – | –
Tween 80 | – | – | – | Metabolized ([2]; compound as carbon source): yes; Toxic [2, 4]: no; Carbon sources that Mortierella elongata AG77 can metabolize [2]: can metabolize
